From patent US20240300958A1, “COMPOUNDS AND THE USES AND PHARMACEUTICAL COMPOSITIONS THEREOF” (BEIJING YOUZHUJU NETWORK TECHNOLOGY CO. LTD., priority 2023, published 2024)
Read-outs that look alike come from different tables or passages of the source.

How the values were obtained:
Test in all cases: Kinase inhibition profile (HTRF / ADP Glo kinase assay)
Assay type in all cases: biochemical
[1] = target: AurB (Homo sapiens (Human), UniProt Q96GD4)
Method: (§1) HTRF kinase assay: 2×ATP and substrate solution as well as 2× kinase and metal solution were prepared with assay buffer. 25 nL of compound was transferred to 384-well assay plate by Echo 655. After centrifugation, 2.5 μL of 2× kinase/metal ion solution was added to the 384-well assay plate followed by incubation at 25° C. for 10 min. 2.5 μL of 2× substrate and ATP solution was added to the wells followed by incubation at 25° C. for 60 min. 2× XL665 and antibody solution was prepared with assay buffer. 5 μL of kinase detection reagent was added to the wells followed by incubation at 25° C. for 60 min. Fluorescence signals at 620 nm (Cryptate) and 665 nm (XL665) were read with a microtiter plate reader. ADP Glo kinase assay: 2×ATP and substrate solution as well as 2× kinase and metal solution were prepared with assay buffer. 20 nL of compound was transferred to 384-well assay plate by Echo 655. 2 μL of 2× kinase/metal ion solution was added followed by incubation at 25° C. for 10 min in the 384-well assay plate. 2 μL of 2× substrate and ATP solution was added to the wells followed by incubation at 25° C. for 60 min. 4 μL of ADP Glo reagent was added to the wells followed by incubation at 25° C. for 40 min. 8 μL of kinase test reagent was added to the wells followed by incubation at 25° C. for 40 min. The luminescence signals were recorded on a microtiter plate reader. Data analysis: the reaction control (0.5% DMSO) reading was set to 0% inhibition, and the background (10 μM positive control) reading was set to 100% inhibition, then the percent inhibition for each test solution was calculated and the results are shown in Table 2 and FIG. 3.

[2] = target: JNK2 (Homo sapiens (Human), UniProt P45984)
Method: as §1

[3] = target: TSSK1 (Homo sapiens (Human), UniProt Q9BXA7)
Method: as §1

[4] = target: AMPKαl/β1/γ1 (Homo sapiens (Human), UniProt Q13131)
Method: as §1

[5] = target: PLK2 (Homo sapiens (Human), UniProt Q9NYY3)
Method: as §1

[6] = target: JAK3 (Homo sapiens (Human), UniProt P52333)
Method: as §1

[7] = target: KDR (Homo sapiens (Human), UniProt P35968)
Method: as §1

[8] = target: LCK (Homo sapiens (Human), UniProt P06239)
Method: as §1

[9] = target: ALK 4 (Homo sapiens (Human), UniProt P36896)
Method: as §1

[10] = target: EPHB4 (Homo sapiens (Human), UniProt P54760)
Method: as §1

[11] = target: BRSK2 (Homo sapiens (Human), UniProt Q8IWQ3)
Method: as §1

[12] = target: DAPK1 (Homo sapiens (Human), UniProt P53355)
Method: as §1

[13] = target: DDR1 (Homo sapiens (Human), UniProt Q08345); conditions: for inhibition at 1 µM: 1 uM Compound C1, DDR1
Method: as §1

[14] = target: EGFR (Homo sapiens (Human), UniProt P00533)
Method: as §1

[15] = target: CDK2/CycE1 (Homo sapiens (Human), UniProt P24941)
Method: as §1

[16] = target: GSK3β (Homo sapiens (Human), UniProt P49841)
Method: as §1

[17] = target: NEK1 (Homo sapiens (Human), UniProt Q96PY6)
Method: as §1

[18] = target: CK1γ3 (Homo sapiens (Human), UniProt Q9Y6M4)
Method: as §1

[19] = target: PAK2 (Homo sapiens (Human), UniProt Q13177)
Method: as §1

[20] = target: RSK1 (Homo sapiens (Human), UniProt Q15418)
Method: as §1

[21] = target: MAPKAPK2 (Homo sapiens (Human), UniProt P49137)
Method: as §1

[22] = 1 uM Compound C1, read-out: % Inhibition (First measurement)
[23] = 1 uM Compound C1, read-out: % Inhibition (Second measurement)
[24] = 1 uM Compound C1, read-out: Average inhibition (%)

Sequence of JNK2 (P45984 whole entry, species assumed): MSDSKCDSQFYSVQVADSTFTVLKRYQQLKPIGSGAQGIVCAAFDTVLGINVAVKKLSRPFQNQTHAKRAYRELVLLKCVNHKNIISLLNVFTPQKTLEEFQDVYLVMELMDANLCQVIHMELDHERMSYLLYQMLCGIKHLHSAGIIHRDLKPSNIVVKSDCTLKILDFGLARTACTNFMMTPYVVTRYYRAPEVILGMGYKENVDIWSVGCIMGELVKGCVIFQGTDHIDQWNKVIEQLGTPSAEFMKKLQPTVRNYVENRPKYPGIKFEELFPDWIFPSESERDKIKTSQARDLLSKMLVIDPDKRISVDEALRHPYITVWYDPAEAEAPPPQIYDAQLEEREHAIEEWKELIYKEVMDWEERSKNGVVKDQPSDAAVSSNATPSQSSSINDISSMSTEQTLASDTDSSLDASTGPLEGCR
Sequence of RSK1 (Q15418 whole entry, species assumed): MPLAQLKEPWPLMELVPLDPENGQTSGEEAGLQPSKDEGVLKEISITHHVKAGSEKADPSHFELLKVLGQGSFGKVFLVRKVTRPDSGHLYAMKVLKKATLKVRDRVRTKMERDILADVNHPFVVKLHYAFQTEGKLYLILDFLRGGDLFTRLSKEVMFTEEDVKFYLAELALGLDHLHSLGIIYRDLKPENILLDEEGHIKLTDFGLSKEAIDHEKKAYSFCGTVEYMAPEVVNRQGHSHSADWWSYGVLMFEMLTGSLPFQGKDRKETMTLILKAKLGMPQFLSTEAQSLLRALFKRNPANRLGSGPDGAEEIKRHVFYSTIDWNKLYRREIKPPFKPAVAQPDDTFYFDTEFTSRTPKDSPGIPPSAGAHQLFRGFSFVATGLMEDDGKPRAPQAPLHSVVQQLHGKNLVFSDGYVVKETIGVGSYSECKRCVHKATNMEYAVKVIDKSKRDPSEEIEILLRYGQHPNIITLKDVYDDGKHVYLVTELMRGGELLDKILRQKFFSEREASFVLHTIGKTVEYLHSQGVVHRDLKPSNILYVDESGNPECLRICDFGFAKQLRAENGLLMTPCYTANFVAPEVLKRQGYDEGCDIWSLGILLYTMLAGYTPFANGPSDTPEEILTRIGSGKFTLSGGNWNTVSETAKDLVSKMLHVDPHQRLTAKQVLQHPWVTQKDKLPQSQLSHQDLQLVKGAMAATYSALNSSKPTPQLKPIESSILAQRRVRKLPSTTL
Sequence of DDR1 (Q08345 19-913): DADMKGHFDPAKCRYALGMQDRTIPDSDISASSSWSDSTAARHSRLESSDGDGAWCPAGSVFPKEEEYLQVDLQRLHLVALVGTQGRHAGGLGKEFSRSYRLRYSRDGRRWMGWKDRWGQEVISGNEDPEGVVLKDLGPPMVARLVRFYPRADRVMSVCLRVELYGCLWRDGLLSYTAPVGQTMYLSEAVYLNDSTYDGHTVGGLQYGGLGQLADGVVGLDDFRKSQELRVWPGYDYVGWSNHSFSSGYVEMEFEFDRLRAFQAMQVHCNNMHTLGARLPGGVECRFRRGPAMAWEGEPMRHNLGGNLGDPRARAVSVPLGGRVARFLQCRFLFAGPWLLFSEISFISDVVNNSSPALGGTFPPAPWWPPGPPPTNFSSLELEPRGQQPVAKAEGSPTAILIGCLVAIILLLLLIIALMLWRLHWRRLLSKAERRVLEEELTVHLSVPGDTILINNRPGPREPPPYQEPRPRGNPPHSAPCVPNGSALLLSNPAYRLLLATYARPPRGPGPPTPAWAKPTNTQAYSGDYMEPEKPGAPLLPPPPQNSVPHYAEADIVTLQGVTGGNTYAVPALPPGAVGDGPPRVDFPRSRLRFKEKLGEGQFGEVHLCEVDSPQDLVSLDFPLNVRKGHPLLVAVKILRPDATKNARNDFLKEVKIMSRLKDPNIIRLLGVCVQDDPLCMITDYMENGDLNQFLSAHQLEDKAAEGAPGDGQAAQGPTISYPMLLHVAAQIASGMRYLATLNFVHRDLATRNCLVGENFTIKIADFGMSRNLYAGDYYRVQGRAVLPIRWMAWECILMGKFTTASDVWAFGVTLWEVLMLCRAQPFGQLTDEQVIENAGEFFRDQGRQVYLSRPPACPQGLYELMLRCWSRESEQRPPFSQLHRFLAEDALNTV
Sequence of DAPK1 (P53355 whole entry, species assumed): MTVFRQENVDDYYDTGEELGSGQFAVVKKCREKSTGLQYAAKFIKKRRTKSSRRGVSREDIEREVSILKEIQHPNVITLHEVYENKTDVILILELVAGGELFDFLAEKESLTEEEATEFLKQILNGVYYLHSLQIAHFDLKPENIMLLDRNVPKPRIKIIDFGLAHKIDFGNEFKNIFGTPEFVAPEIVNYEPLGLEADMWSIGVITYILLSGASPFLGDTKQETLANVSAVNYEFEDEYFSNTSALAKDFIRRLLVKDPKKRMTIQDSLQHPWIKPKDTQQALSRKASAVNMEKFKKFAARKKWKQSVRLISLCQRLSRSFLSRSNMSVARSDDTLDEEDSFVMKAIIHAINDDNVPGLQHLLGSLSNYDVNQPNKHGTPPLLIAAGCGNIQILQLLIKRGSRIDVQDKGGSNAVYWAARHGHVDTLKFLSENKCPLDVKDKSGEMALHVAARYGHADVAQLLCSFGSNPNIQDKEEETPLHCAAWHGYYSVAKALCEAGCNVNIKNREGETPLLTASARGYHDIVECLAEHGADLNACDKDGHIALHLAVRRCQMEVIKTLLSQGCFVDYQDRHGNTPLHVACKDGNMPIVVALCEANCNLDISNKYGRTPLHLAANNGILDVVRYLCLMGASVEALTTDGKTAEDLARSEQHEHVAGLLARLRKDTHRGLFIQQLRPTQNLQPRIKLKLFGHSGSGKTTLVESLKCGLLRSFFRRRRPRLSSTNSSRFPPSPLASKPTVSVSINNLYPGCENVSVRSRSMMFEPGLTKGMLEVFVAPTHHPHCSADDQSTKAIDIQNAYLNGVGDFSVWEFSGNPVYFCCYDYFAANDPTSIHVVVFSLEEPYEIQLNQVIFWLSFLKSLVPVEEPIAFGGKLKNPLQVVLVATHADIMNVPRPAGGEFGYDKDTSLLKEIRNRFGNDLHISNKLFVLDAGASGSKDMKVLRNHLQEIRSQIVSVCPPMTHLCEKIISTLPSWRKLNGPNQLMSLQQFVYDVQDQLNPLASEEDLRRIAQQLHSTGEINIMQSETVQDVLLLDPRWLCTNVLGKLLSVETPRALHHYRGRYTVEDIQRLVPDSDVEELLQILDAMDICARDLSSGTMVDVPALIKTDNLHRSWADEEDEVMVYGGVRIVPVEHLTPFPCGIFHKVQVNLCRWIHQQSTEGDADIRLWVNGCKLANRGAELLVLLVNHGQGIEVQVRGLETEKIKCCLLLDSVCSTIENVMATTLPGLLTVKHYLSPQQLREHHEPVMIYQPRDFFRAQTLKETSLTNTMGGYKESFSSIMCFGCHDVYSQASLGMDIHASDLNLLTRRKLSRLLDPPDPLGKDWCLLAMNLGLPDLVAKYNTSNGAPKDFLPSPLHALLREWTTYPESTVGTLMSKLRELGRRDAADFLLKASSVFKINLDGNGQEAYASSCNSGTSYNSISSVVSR
Sequence of PLK2 (Q9NYY3 whole entry, species assumed): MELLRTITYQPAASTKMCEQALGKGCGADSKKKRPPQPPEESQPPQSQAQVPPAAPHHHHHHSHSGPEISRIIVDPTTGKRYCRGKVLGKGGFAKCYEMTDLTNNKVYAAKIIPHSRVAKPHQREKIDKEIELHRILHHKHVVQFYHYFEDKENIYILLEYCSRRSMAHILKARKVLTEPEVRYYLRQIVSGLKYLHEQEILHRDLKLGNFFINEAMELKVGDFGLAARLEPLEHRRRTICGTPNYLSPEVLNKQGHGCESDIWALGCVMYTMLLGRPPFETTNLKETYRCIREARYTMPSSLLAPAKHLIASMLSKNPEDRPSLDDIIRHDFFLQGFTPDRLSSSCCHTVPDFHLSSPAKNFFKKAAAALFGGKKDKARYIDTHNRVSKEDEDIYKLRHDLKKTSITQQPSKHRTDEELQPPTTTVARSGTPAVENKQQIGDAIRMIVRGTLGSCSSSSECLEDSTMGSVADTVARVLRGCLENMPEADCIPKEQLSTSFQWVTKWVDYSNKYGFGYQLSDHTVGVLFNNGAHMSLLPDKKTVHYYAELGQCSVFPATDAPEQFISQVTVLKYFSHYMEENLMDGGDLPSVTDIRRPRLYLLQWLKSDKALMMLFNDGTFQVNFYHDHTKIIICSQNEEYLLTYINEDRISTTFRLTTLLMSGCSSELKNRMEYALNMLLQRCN
Sequence of MAPKAPK2 (P49137 whole entry, species assumed): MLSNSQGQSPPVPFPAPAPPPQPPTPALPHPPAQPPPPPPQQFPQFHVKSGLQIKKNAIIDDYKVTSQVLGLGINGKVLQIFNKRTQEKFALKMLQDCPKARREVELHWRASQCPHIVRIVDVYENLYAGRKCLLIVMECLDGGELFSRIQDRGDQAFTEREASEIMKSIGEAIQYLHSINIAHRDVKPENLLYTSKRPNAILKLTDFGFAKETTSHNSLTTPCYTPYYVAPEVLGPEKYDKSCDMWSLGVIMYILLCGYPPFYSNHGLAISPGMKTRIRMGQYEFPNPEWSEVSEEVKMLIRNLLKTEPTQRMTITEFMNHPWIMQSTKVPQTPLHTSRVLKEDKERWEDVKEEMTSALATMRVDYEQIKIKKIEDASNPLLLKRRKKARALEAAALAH
Sequence of TSSK1 (Q9BXA7 whole entry, species assumed): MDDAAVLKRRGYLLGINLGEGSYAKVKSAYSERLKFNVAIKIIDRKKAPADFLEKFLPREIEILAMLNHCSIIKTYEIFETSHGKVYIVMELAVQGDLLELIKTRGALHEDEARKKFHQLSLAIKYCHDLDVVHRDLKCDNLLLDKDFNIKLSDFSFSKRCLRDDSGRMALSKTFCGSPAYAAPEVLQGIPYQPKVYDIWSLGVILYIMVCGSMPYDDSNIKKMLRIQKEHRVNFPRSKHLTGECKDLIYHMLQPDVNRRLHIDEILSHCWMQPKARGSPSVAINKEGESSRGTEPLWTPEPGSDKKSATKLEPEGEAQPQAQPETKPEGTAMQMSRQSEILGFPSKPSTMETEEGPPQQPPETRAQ

With `Cc1ccc(C(=O)Nc2ccccn2)cc1C#Cc1cnc2cc(C3=CCCCC3)cnn12` [Compound C1, 3-{2-[7-(cyclohex-1-en-1-yl)imidazo[1,2-b]pyridazin-3-yl]ethynyl}-4-methyl-N-(pyridin-2-yl)benzamide] the inhibition at 1 µM [1, 22] was 19.7%, the inhibition at 1 µM [1, 23] was 13.3% and the inhibition at 1 µM [1, 24] was 16.5%. It also gave an inhibition at 1 µM [2, 22] of 9.39%, an inhibition at 1 µM [2, 23] of 9.07% and an inhibition at 1 µM [2, 24] of 9.23%. It also gave an inhibition at 1 µM [3, 22] of -15.1%, an inhibition at 1 µM [3, 23] of -3.43% and an inhibition at 1 µM [3, 24] of -9.28%. It also gave an inhibition at 1 µM [4, 22] of 2.13%, an inhibition at 1 µM [4, 23] of -1.96% and an inhibition at 1 µM [4, 24] of 0.09%. For the same compound, the inhibition at 1 µM [5, 22] was 10.6%, the inhibition at 1 µM [5, 23] was 2.02% and the inhibition at 1 µM [5, 24] was 6.33%. The inhibition at 1 µM [6, 22] was -1.28%, the inhibition at 1 µM [6, 23] was 2.46% and the inhibition at 1 µM [6, 24] was 0.59%. For the same compound, the inhibition at 1 µM [7, 22] was 2.42%, the inhibition at 1 µM [7, 23] was 1.61% and the inhibition at 1 µM [7, 24] was 2.01%. It also gave an inhibition at 1 µM [8, 22] of 7.39%, an inhibition at 1 µM [8, 23] of -6.87% and an inhibition at 1 µM [8, 24] of 0.26%. It also gave an inhibition at 1 µM [9, 22] of -6.24%, an inhibition at 1 µM [9, 23] of 14.8% and an inhibition at 1 µM [9, 24] of 4.25%. The inhibition at 1 µM [10, 22] was 3.8%, the inhibition at 1 µM [10, 23] was -8.27% and the inhibition at 1 µM [10, 24] was -2.24%. For the same compound, the inhibition at 1 µM [11, 22] was 0.46%, the inhibition at 1 µM [11, 23] was -0.94% and the inhibition at 1 µM [11, 24] was -0.24%. The inhibition at 1 µM [12, 22] was -14.5%, the inhibition at 1 µM [12, 23] was -5.25% and the inhibition at 1 µM [12, 24] was -9.87%. For the same compound, the inhibition at 1 µM ([13]; read-out: % Inhibition (First measurement)) was 99.4%, the inhibition at 1 µM ([13]; read-out: % Inhibition (Second measurement)) was 99.1% and the inhibition at 1 µM ([13]; read-out: Average inhibition (%)) was 99.3%. The “Selectivity of DDR1 inhibition in the kinase inhibition profile (in words)” value ([13]; kinase panel) was “can inhibit DDR1 with higher selectivity”, the inhibition at 1 µM [14, 22] was -6.86% and the inhibition at 1 µM [14, 23] was 1.78%. For the same compound, the inhibition at 1 µM [14, 24] was -2.54%, the inhibition at 1 µM [15, 22] was 0.53% and the inhibition at 1 µM [15, 23] was 12.6%. The inhibition at 1 µM [15, 24] was 6.56%, the inhibition at 1 µM [16, 22] was 0.83% and the inhibition at 1 µM [16, 23] was 7.83%. The inhibition at 1 µM [16, 24] was 4.33%, the inhibition at 1 µM [17, 22] was 14.6% and the inhibition at 1 µM [17, 23] was 8.97%. It also gave an inhibition at 1 µM [17, 24] of 11.8%, an inhibition at 1 µM [18, 22] of -7.05% and an inhibition at 1 µM [18, 23] of 1.91%. It also gave an inhibition at 1 µM [18, 24] of -2.57%, an inhibition at 1 µM [19, 22] of 2.23% and an inhibition at 1 µM [19, 23] of 12.1%. For the same compound, the inhibition at 1 µM [19, 24] was 7.17%, the inhibition at 1 µM [20, 22] was 0.73% and the inhibition at 1 µM [20, 23] was -7.9%. The inhibition at 1 µM [20, 24] was -3.59%, the inhibition at 1 µM [21, 22] was 15.3% and the inhibition at 1 µM [21, 23] was -3.28%. For the same compound, the inhibition at 1 µM [21, 24] was 6.02%.
